What all share (type): cell-based
In one experiment the test system is SW480 cells (G12V). The experiment can be described thus: Cell viability assay (CellTiter-Glo), SW480 cells. The conditions noted are these: Homo sapiens, 72 h; SW480 cells, 3 days incubation, CellTiter-Glo luminescence; read-out: Inhibition of Cancerous Cells IC50 SW480 (G12V). In a few lines:
(§1)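 Luminescence readout (CellTiter-Glo, 10 min with shaking) after 3-day compound or DMSO exposure at 37 °C. H358/SW48 in RPMI 1640, Lovo/SW480 in DMEM, assay medium with 2.5% FBS; Lovo seeded at 4,000 or 1,000 cells/well versus 2,000 or 500 for others.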

A further experiment deals with H358 cells (G12C). The experiment can be described thus: Cell viability assay (CellTiter-Glo), H358 cells. The following applies: Homo sapiens, NCI-H358, 72 h; H358 cells, 3 days incubation, CellTiter-Glo luminescence; read-out: Inhibition of Cancerous Cells IC50 H358 (G12C). An outline of the steps: as §1
On the technique in general: ATP-based viability assays read luminescence as a measure of living cells.

The subject of the next experiment is SW48 cells (wt). The experiment in a line: Cell viability assay (CellTiter-Glo), SW48 cells. The following applies: Homo sapiens, 72 h; SW48 cells, 3 days incubation, CellTiter-Glo luminescence; read-out: Inhibition of Cancerous Cells IC50 SW48 (wt). An outline of the steps: as §1
A further experiment has as its system Lovo cells (G13D). The experiment can be described thus: Cell viability assay (CellTiter-Glo), Lovo cells. The conditions noted are these: Homo sapiens, 72 h; Lovo cells, 3 days incubation, CellTiter-Glo luminescence; read-out: Inhibition of Cancerous Cells IC50 Lovo (G13D). An outline of the steps: as §1

A value given as a limit tells only on which side of the number the result lay.

Usually IC50 stands for the concentration that inhibits the measured activity by half. As to `COc1ccc(C2=N[C@@H](c3ccc(Cl)cc3)[C@@H](c3ccc(Cl)cc3)N2C(=O)N2CCN(CC(=O)NCCCCCCCCCCOc3cc4nc(C)nc(N[C@H](C)c5cccc(Br)c5)c4cc3OC)CC2)c(OC(C)C)c1` [Compound C5, 2-(4-((4S,5R)-4,5-Bis(4-chlorophenyl)-2-(2-isopropoxy-4-methoxyphenyl)-4,5-dihydro-1H-imidazole-1-carbonyl)piperazin-1-yl)-N-(10-((4-(((R)-1-(3-bromophenyl)ethyl)-amino)-6-methoxy-2-methylquinazolin-7-yl)oxy)decyl)acetamide], the IC50 in the experiment on SW480 cells (G12V), with H358 cells (G12C), in the experiment on SW48 cells (wt) and in the experiment on Lovo cells (G13D) was above 10 µM each time.

Turning to `COc1ccc(C2=N[C@@H](c3ccc(Cl)cc3)[C@@H](c3ccc(Cl)cc3)N2C(=O)N2CCN(CC(=O)NCCCCCCCCCCCCOc3cc4nc(C)nc(N[C@H](C)c5cccc(Br)c5)c4cc3OC)CC2)c(OC(C)C)c1` [Compound C6, 2-(4-((4S,5R)-4,5-Bis(4-chlorophenyl)-2-(2-isopropoxy-4-methoxyphenyl)-4,5-dihydro-1H-imidazole-1-carbonyl)piperazin-1-yl)-N-(12-((4-(((R)-1-(3-bromophenyl)ethyl)-amino)-6-methoxy-2-methylquinazolin-7-yl)oxy)dodecyl)acetamide], the half-maximal inhibitory concentration (IC50) with SW480 cells (G12V), with H358 cells (G12C), in the experiment on SW48 cells (wt) and in the experiment on Lovo cells (G13D) was above 10 µM throughout.

`COc1cc2c(N[C@H](C)c3cccc(Br)c3)nc(C)nc2cc1OCCCCCCC(=O)N[C@H](C(=O)N1C[C@H](O)C[C@H]1C(=O)NCc1ccc(-c2scnc2C)cc1)C(C)(C)C` [Compound D1, (2S,4R)-1-((S)-2-(7-((4-(((R)-1-(3-Bromophenyl)ethyl)amino)-6-methoxy-2-methylquinazolin-7-yl)oxy)heptanamido)-3,3-dimethylbutanoyl)-4-hydroxy-N-(4-(4-methyl-thiazol-5-yl)benzyl)pyrrolidine-2-carboxamide]: the IC50 with SW480 cells (G12V) amounted to 1.3 µM; in the experiment with H358 cells (G12C), 1.6 µM; in the experiment on SW48 cells (wt) it was 7.9 µM; with Lovo cells (G13D) it was 6.4 µM.

On to `COc1cc2c(N[C@H](C)c3cccc(Br)c3)nc(C)nc2cc1OCCCCCCCCCCC(=O)N[C@H](C(=O)N1C[C@H](O)C[C@H]1C(=O)NCc1ccc(-c2scnc2C)cc1)C(C)(C)C` [Compound D3, (2S,4R)-1-((S)-2-(11-((4-(((R)-1-(3-Bromophenyl)ethyl)amino)-6-methoxy-2-methylquinazolin-7-yl)oxy)undecanamido)-3,3-dimethylbutanoyl)-4-hydroxy-N-(4-(4-methyl-thiazol-5-yl)benzyl)pyrrolidine-2-carboxamide], for which the half-maximal inhibitory concentration (IC50) in the experiment on SW480 cells (G12V), with H358 cells (G12C), with SW48 cells (wt) and with Lovo cells (G13D) was above 10 µM each time.

Turning to `COc1cc2c(N[C@H](C)c3cccc(Br)c3)nc(C)nc2cc1OCCCCCCCCCCCCC(=O)N[C@H](C(=O)N1C[C@H](O)C[C@H]1C(=O)NCc1ccc(-c2scnc2C)cc1)C(C)(C)C` [Compound D4, (2S,4R)-1-((S)-2-(13-((4-(((R)-1-(3-Bromophenyl)ethyl)amino)-6-methoxy-2-methylquinazolin-7-yl)oxy)tridecanamido)-3,3-dimethylbutanoyl)-4-hydroxy-N-(4-(4-methylthiazol-5-yl)benzyl)pyrrolidine-2-carboxamide], the half-inhibitory concentration (IC50) with SW480 cells (G12V) was 2.7 µM; in the experiment on H358 cells (G12C) it was above 10 µM; with SW48 cells (wt), above 10 µM; in the experiment with Lovo cells (G13D), above 10 µM.

(Values after patent publication US20240025863A1, “SOS1 PROTEIN DEGRADERS, PHARMACEUTICAL COMPOSITIONS THEREOF, AND THEIR THERAPEUTIC APPLICATIONS” (BioTheryX, Inc., priority 2020, published 2024).)
